In PubChem BioAssay AID2060612 (Molecular Pharmacology Branch, DTP, NCI, 2025):
Where “and” joins values, the source holds several entries; their conditions need not be identical. Equal values may be shown once.

Tested on: 565232-114-T-J1-PDC complex spheroid viability
Test: Anticancer human tumor 565232-114-T-J1-PDC patient-derived bladder carcinoma cell line growth inhibition [CLK]
Details: for viability, T/C: stronger effect = lower value; active = viability on the fitted dose curve at most 10% of control; inactive = the rest
Source text: A high-throughput screen of multi-cell type tumor spheroids was designed to identify active combinations of […] and targeted small molecules. Complex spheroids include a stromal component modeled by human endothelial cells (HUVEC) and fibroblasts modeled by human mesenchymal stem cells (MSCs). The concentration ranges selected for each drug and investigational agent were based upon clinically achievable concentrations if the clinical Cmax of the agent was known.
Compounds. The drugs and investigational agents: cirtuvivint (SM08502; NSC835563), CC-671 (NSC850746), vemurafenib (NSC761431), tapotoclax (NSC804041), sotorasib (NSC818433), adagrasib (NSC831453), MRTX-1133 (NSC836407), BAY2416964 (NSC825713), copanlisib (NSC816437), inavolisib (NSC800729), abemaciclib (NSC768073), osimertinib (NSC779217), entinostat (NSC756642), eltanexor (KPT-8602, NSC794443), venetoclax (NSC766270), ceralasertib (NSC777638), bortezomib (NSC756655), olaparib (NSC753686), talazoparib (NSC767125), alisertib (NSC759677), peposertib (NSC802822), gemcitabine (NSC613327), 5-fluorouracil (NSC19893), SN-38 (NSC673596), oxaliplatin (NSC266046), paclitaxel (NSC125973), and doxorubicin (NSC123127), were obtained from the National Cancer Institute (NCI) Developmental Therapeutics Program Chemical Repository. The FDA-approved anticancer drug set is available from the Developmental Therapeutics Program at https://dtp.cancer.gov/organization/dscb/obtaining/available plates.htm. […] The stock solutions were prepared in dimethyl sulfoxide (DMSO, Sigma-Aldrich, St. Louis, MO, cat. D2650), except for the platinum complexes which were prepared in saline (Quality Biological, Gaithersburg, MD, cat. 114-055-101), at 800-fold the tested concentration and stored at -70 degrees C prior to their use. All drugs and investigational agents were tested over a range starting from a high concentration at or near the clinical Cmax and decreasing in half-log increments. If the clinical Cmax for an agent had not been determined, the highest concentration tested was 10 microM.
Cell Culture. All cells were maintained in an incubator at 37 degrees C and 5% CO2 with 95% humidity. The PDC lines were cultured according to standard operating procedures established by the NCI PDMR. Briefly, all PDCs were thawed and cultured in Matrigel-coated flasks prepared with a working solution of 1X Ham's F-12 nutrient mix, without supplementation (Invitrogen, Waltham, MA, cat. 11765054), 100 U/mL penicillin-streptomycin (Invitrogen, cat. 15140122), and 2.5% Matrigel (Corning Inc., Corning, NY, cat. 354248) for the first three passages. The 947758-054-R-J2-PDC line was cultured in 6B/Colon 1A media, which includes advanced DMEM/F-12 (Thermo Fisher Scientific, cat. 12634028), 10 mM HEPES (Thermo Fisher Scientific, cat. 15630080), 1X GlutaMAX supplement (Thermo Fisher Scientific, cat. 35050061), 0.1 mg/mL primocin (InvivoGen, cat. ant-pm-2), 10% defined fetal bovine serum, heat inactivated (HyClone Laboratories Inc., cat. SH30070.03HI), 1.25 mM N-Acetyl-L-cysteine (Sigma-Aldrich, cat. A9165), 10 mM nicotinamide (Sigma-Aldrich, cat. N0636), 1X B-27 supplement (Thermo Fisher Scientific, cat. 17504044), 1X N-2 supplement (Thermo Fisher Scientific, cat. 17502048), and 10 microM Y-27632 dihydrochloride (Tocris Bioscience, cat. 1254). The 876862-298-R-J1-PDC was cultured in 6E media, which includes all 6B/Colon 1A media components plus 50% L-WRN conditioned media (ATCC, cat. CRL-3276), 50 ng/mL recombinant human EGF recombinant protein (hEGF; Thermo Fisher Scientific, cat. PHG0311), 10 ng/mL recombinant human fibroblast growth factor 10 (hGFG-10; PeproTech, cat. 100-26), 1 ng/mL recombinant human fibroblast growth factor 2 (hFGF-2; PeproTech, cat. 100-18B), and 1 µM prostaglandin E2 (PGE2; Tocris, cat. 2296). The 227483-062-R1-J1-PDC line was cultured in Panc media, containing all 6E components except hFGF-2, with the addition of 500 nM SB-431542 (Selleckchem, cat. S1067) and 10 nM gastrin (Tocris, cat. 3006). […]
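Also: spheroids exposed to compounds for 7 days before readout.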
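For viability, T/C in this document: 100% = DMSO vehicle wells with luminescence normalized to vehicle control.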

C#Cc1c(F)ccc2cc(O)cc(-c3ncc4c(N5CC6CCC(C5)N6)nc(OCC56CCCN5CC(F)C6)nc4c3F)c12 (centres undefined) + CNC(=O)c1ccc(Nc2nc(OC3CCCC3)c3c(-c4ccc5nc(C)oc5c4)c[nH]c3n2)c(OC)c1
< 0.0316 µM: IC50 (curve of first compound, second compound 0.1 µM) | IC50 (curve of first compound, second compound 0.316 µM) | IC50 (curve of first compound, second compound 1 µM) | IC50 (curve of first compound, second compound 3.16 µM) | IC50 (curve of first compound, second compound 10 µM)
inactive: viability, T/C (second compound 0.0316 µM, first compound 0.0316 µM) 78.9% | viability, T/C (second compound 0.0316 µM, first compound 0.1 µM) 67.7% | viability, T/C (second compound 0.0316 µM, first compound 0.316 µM) 95.5% | viability, T/C (second compound 0.0316 µM, first compound 1 µM) 75.6% | viability, T/C (second compound 0.0316 µM, first compound 3.16 µM) 119% | viability, T/C (second compound 0.0316 µM, first compound 10 µM) 89.6% | viability, T/C (second compound 0.1 µM, first compound 0.0316 µM) 49.6% | viability, T/C (second compound 0.1 µM, first compound 0.1 µM) 46.9% | viability, T/C (second compound 0.1 µM, first compound 0.316 µM) 45.9% | viability, T/C (second compound 0.1 µM, first compound 1 µM) 53.2% | viability, T/C (second compound 0.1 µM, first compound 3.16 µM) 51.5% | viability, T/C (second compound 0.1 µM, first compound 10 µM) 44.2% | viability, T/C (second compound 0.316 µM, first compound 0.0316 µM) 33.3% | viability, T/C (second compound 0.316 µM, first compound 0.1 µM) 31.7% | viability, T/C (second compound 0.316 µM, first compound 0.316 µM) 28.9% | viability, T/C (second compound 0.316 µM, first compound 1 µM) 28.1% | viability, T/C (second compound 0.316 µM, first compound 3.16 µM) 31.5% | viability, T/C (second compound 0.316 µM, first compound 10 µM) 23% | viability, T/C (second compound 1 µM, first compound 0.0316 µM) 25.8% | viability, T/C (second compound 1 µM, first compound 0.1 µM) 25.6% | viability, T/C (second compound 1 µM, first compound 0.316 µM) 22.3% | viability, T/C (second compound 1 µM, first compound 1 µM) 17.4% | viability, T/C (second compound 1 µM, first compound 3.16 µM) 21.5% | viability, T/C (second compound 1 µM, first compound 10 µM) 17.3% | viability, T/C (second compound 3.16 µM, first compound 0.0316 µM) 18.6% | viability, T/C (second compound 3.16 µM, first compound 0.1 µM) 16.2% | viability, T/C (second compound 3.16 µM, first compound 0.316 µM) 18.8% | viability, T/C (second compound 3.16 µM, first compound 1 µM) 16.4% | viability, T/C (second compound 3.16 µM, first compound 3.16 µM) 16.4% | viability, T/C (second compound 3.16 µM, first compound 10 µM) 11.6% | viability, T/C (second compound 10 µM, first compound 0.0316 µM) 18.6% | viability, T/C (second compound 10 µM, first compound 0.1 µM) 17.3% | viability, T/C (second compound 10 µM, first compound 0.316 µM) 12.3% | viability, T/C (second compound 10 µM, first compound 1 µM) 14.8% | viability, T/C (second compound 10 µM, first compound 3.16 µM) 19.7% | viability, T/C (second compound 10 µM, first compound 10 µM) 9.9%
> 10 µM: IC50 (curve of first compound, second compound 0.0316 µM)

C=CC(=O)Nc1cc(Nc2nccc(-c3cn(C)c4ccccc34)n2)c(OC)cc1N(C)CCN(C)C
inactive: viability, T/C (compound 0.000949 µM) 93.7% and 95.9% | viability, T/C (compound 0.003 µM) 76% and 82.3% | viability, T/C (compound 0.00949 µM) 101% and 91.3% | viability, T/C (compound 0.03 µM) 104% and 89.6% | viability, T/C (compound 0.0949 µM) 87.5% and 109% | viability, T/C (compound 0.3 µM) 112% and 110%
> 0.3 µM: IC50 (curve of compound)
